Drawing on patent US12668600B2 (Kumquat Biosciences Inc., priority 2023, dated 2026), this text covers IC50 for 16 compounds.

pIC50: −log10 of the molar value.

Format in all cases: biochemical
For one experiment, the target named is T1, KRAS G12S (Homo sapiens, UniProt P01116, G12S).
T1 construct: made in house; host or cells: E. coli, e.g. BL21 (DE3)
The experiment is described as follows: HTRF KRAS-SOS1 interaction assay, KRAS G12S. The following applies: binned ≤2 μM / >2 μM, read-out: Inhibition of KRAS G12S (IC50). The essentials:
(§1)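 GST-KRAS + anti-GST-Eu; His-hSOS1 + anti-6His-XL665; cpd in DMSO, duplicate, 10–0.01 μM; ~10 min incubation; HTRF ex 337/em 620, 665 nm; IC50 fitted on 665/620 ratio.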

In the next experiment the target is T2, KRAS G12D (Homo sapiens, UniProt P01116, G12D).
T2 construct: made in house; host or cells: E. coli, e.g. BL21 (DE3)
In words: HTRF KRAS-SOS1 interaction assay, KRAS G12D. The conditions noted are these: binned ≤2 μM / >2 μM, read-out: Inhibition of KRAS G12D (IC50). The procedure, abridged: as §1

Another experiment has as its target T3, KRAS WT (Homo sapiens, UniProt P01116).
T3 construct: made in house; host or cells: E. coli, e.g. BL21 (DE3)
The experiment is described as follows: HTRF KRAS-SOS1 interaction assay, wildtype KRAS. The conditions noted are these: binned ≤2 μM / >2 μM, read-out: Inhibition of KRAS WT (IC50). The essentials:
as §1

For another experiment, the target named is T4, KRAS G12V (Homo sapiens, UniProt P01116, G12V).
T4 construct: made in house; host or cells: E. coli, e.g. BL21 (DE3)
In words: HTRF KRAS-SOS1 interaction assay, KRAS G12V. The conditions noted are these: binned ≤2 μM / >2 μM, read-out: Inhibition of KRAS G12V (IC50). The essentials: as §1

T3 sequence (P01116 1-188 isoform P01116-2): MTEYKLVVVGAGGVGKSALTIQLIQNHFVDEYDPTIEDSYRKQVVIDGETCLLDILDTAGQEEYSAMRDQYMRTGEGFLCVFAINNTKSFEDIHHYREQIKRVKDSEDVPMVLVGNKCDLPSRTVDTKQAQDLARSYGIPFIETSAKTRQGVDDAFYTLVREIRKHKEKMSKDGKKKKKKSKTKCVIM
T2 sequence (P01116 1-188 isoform P01116-2 G12D): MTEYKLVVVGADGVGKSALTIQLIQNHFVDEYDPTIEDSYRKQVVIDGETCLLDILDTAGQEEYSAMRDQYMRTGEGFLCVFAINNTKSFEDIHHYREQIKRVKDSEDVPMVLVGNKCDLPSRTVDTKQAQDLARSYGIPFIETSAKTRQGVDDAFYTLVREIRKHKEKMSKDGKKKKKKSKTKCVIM
T1 sequence (P01116 1-188 isoform P01116-2 G12S): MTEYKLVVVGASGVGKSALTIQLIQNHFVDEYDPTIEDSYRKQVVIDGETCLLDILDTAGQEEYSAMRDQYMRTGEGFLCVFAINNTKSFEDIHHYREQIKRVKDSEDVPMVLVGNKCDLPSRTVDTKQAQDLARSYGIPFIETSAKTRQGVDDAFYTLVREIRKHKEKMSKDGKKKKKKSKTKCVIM
T4 sequence (P01116 1-188 isoform P01116-2 G12V): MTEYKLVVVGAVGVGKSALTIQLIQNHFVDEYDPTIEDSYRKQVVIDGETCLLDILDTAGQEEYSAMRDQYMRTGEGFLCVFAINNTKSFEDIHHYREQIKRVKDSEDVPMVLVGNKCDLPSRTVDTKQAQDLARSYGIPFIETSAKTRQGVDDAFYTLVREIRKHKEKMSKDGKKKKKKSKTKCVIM

Consider `CN(C)C(=O)C[C@H](c1cccnc1N)N1CCOc2c(C(F)(F)F)c(-c3ccc(F)c4sc(N)c(C#N)c34)c(F)c3nc(OC[C@@]45CCCN4C[C@H](F)C5)nc1c23` [Compound 810, (3R)-3-(9-(2-amino-3-cyano-7-fluorobenzo[b]thiophen-4-yl)-10-fluoro-2-(((2R,7aS)-2-fluorotetrahydro-1H-pyrrolizin-7a(5H)-yl)methoxy)-8-(trifluoromethyl)-5,6-dihydro-4H-[1,4]oxazepino[5,6,7-de]quinazolin-4-yl)-3-(2-aminopyridin-3-yl)-N,N-dimethylpropanamide], for which the pIC50 on KRAS G12S, on KRAS G12D, at KRAS WT and at KRAS G12V was at least 5.70 each time.
Take `C[C@H](c1cccnc1N)N1CCOc2c(Cl)c(-c3ccc(F)c4sc(N)c(C#N)c34)c(F)c3nc(OCC45CCCC4CCC5)nc1c23` (single isomer, unassigned) [Compound 914]: the pIC50 on KRAS G12S, at KRAS G12D, on KRAS WT and on KRAS G12V was at least 5.70 in each case.
Consider `N#Cc1c(N)sc2c(F)ccc(-c3c(C(F)(F)F)c4c5c(nc(OC[C@@]67CCCN6C[C@H](F)C7)nc5c3F)N([C@H](CC3CC3)c3cccnc3N)CCO4)c12` (single isomer, unassigned) [Compound 753], for which the pIC50 at KRAS G12S, on KRAS G12D, on KRAS WT and at KRAS G12V was at least 5.70 throughout.
In the case of `C[C@H](c1cc(Cl)cnc1N)N1CCOc2c(C(F)(F)F)c(-c3ccc(F)c4sc(N)c(C#N)c34)c(F)c3nc(OC[C@@]45CCCN4C[C@H](F)C5)nc1c23` (single isomer, unassigned) [Compound 702], the pIC50 on KRAS G12S, at KRAS G12D, at KRAS WT and on KRAS G12V was below 5.70 throughout.
As for `C[C@H](c1cc(F)cnc1N)N1CCOc2c(C(F)(F)F)c(-c3ccc(F)c4sc(N)c(C#N)c34)c(F)c3nc(OC[C@@]45CCCN4CC(=C(F)F)C5)nc1c23` [Compound 675, 2-amino-4-(4-((R)-1-(2-amino-5-fluoropyridin-3-yl)ethyl)-2-(((S)-2-(difluoromethylene)tetrahydro-1H-pyrrolizin-7a(5H)-yl)methoxy)-10-fluoro-8-(trifluoromethyl)-5,6-dihydro-4H-[1,4]oxazepino[5,6,7-de]quinazolin-9-yl)-7-fluorobenzo[b]thiophene-3-carbonitrile], the pIC50 at KRAS G12S, at KRAS G12D, on KRAS WT and on KRAS G12V was at least 5.70 in each case.
On to `CC(=O)N1CCC(C[C@H](c2cccnc2N)N2CCOc3c(C(F)(F)F)c(-c4ccc(F)c5sc(N)c(C#N)c45)c(F)c4nc(OC[C@@]56CCCN5C[C@H](F)C6)nc2c34)CC1` [Compound 658, 4-(4-((R)-2-(1-acetylpiperidin-4-yl)-1-(2-aminopyridin-3-yl)ethyl)-10-fluoro-2-(((2R,7aS)-2-fluorotetrahydro-1H-pyrrolizin-7a(5H)-yl)methoxy)-8-(trifluoromethyl)-5,6-dihydro-4H-[1,4]oxazepino[5,6,7-de]quinazolin-9-yl)-2-amino-7-fluorobenzo[b]thiophene-3-carbonitrile], for which the pIC50 on KRAS G12S, on KRAS G12D, at KRAS WT and on KRAS G12V was at least 5.70 throughout.
Turning to `N#Cc1c(N)sc2c(F)ccc(-c3c(C(F)(F)F)c4c5c(nc(OC[C@@]67CCCN6C[C@@]6(CC6(F)F)C7)nc5c3F)N([C@H](CCC(F)(F)F)c3cc(F)cnc3N)CCO4)c12` [Compound 617, 2-amino-4-(4-((R)-1-(2-amino-5-fluoropyridin-3-yl)-4,4,4-trifluorobutyl)-2-(((1S,7a′S)-2,2-difluorodihydro-1′H,3′H-spiro[cyclopropane-1,2′-pyrrolizin]-7a′(5′H)-yl)methoxy)-10-fluoro-8-(trifluoromethyl)-5,6-dihydro-4H-[1,4]oxazepino[5,6,7-de]quinazolin-9-yl)-7-fluorobenzo[b]thiophene-3-carbonitrile], the pIC50 at KRAS G12S, on KRAS G12D, at KRAS WT and on KRAS G12V was at least 5.70 in each case.
For `C=C[C@H](c1cccnc1N)N1CCOc2c(Cl)c(-c3ccc(F)c4sc(N)c(C#N)c34)c(F)c3nc(OC[C@@]45CCCN4C[C@H](F)C5)nc1c23` [Compound 759, 2-amino-4-(4-((R)-1-(2-aminopyridin-3-yl)allyl)-8-chloro-10-fluoro-2-(((2R,7aS)-2-fluorotetrahydro-1H-pyrrolizin-7a(5H)-yl)methoxy)-5,6-dihydro-4H-[1,4]oxazepino[5,6,7-de]quinazolin-9-yl)-7-fluorobenzo[b]thiophene-3-carbonitrile], the negative-log IC50 (pIC50) on KRAS G12S, at KRAS G12D, at KRAS WT and at KRAS G12V was at least 5.70 throughout.
Take `N#Cc1c(N)sc2c(F)ccc(-c3c(C(F)(F)F)c4c5c(nc(OC[C@@]67CCCN6C[C@H](F)C7)nc5c3F)N([C@H](CCC3CC3)c3cccnc3N)CCO4)c12` (single isomer, unassigned) [Compound 877]: the pIC50 at KRAS G12S, on KRAS G12D, at KRAS WT and at KRAS G12V was at least 5.70 throughout.
For the compound `C[C@H](c1cccnc1N)N1CCOc2c(Cl)c(-c3ccc(F)c4sc(N)c(C#N)c34)c(F)c3nc(OC[C@@]45CCCN4C[C@]4(CC4(F)F)C5)nc1c23` [Compound 918, 2-amino-4-(4-((R)-1-(2-aminopyridin-3-yl)ethyl)-8-chloro-2-(((1R,7a′S)-2,2-difluorodihydro-1′H,3′H-spiro[cyclopropane-1,2′-pyrrolizin]-7a′(5′H)-yl)methoxy)-10-fluoro-5,6-dihydro-4H-[1,4]oxazepino[5,6,7-de]quinazolin-9-yl)-7-fluorobenzo[b]thiophene-3-carbonitrile], the pIC50 on KRAS G12S, at KRAS G12D, on KRAS WT and at KRAS G12V was at least 5.70 in each case.
`COC[C@H](c1cccnc1N)N1CCOc2c(C(F)(F)F)c(-c3ccc(F)c4sc(N)c(C#N)c34)c(F)c3nc(OC[C@@]45CCCN4C[C@H](F)C5)nc1c23` [Compound 684, 2-amino-4-(4-((S)-1-(2-aminopyridin-3-yl)-2-methoxyethyl)-10-fluoro-2-(((2R,7aS)-2-fluorotetrahydro-1H-pyrrolizin-7a(5H)-yl)methoxy)-8-(trifluoromethyl)-5,6-dihydro-4H-[1,4]oxazepino[5,6,7-de]quinazolin-9-yl)-7-fluorobenzo[b]thiophene-3-carbonitrile]: the negative logarithm of the IC50 (pIC50) at KRAS G12S, on KRAS G12D, at KRAS WT and on KRAS G12V was at least 5.70 each time.
For the compound `C[C@H](c1nccnc1N)N1CCOc2c(C(F)(F)F)c(-c3ccc(F)c4sc(N)c(C#N)c34)c(F)c3nc(OC[C@@]45CCCN4CC(=C(F)F)C5)nc1c23` [Compound 876, 2-amino-4-(4-((R)-1-(3-aminopyrazin-2-yl)ethyl)-2-(((S)-2-(difluoromethylene)tetrahydro-1H-pyrrolizin-7a(5H)-yl)methoxy)-10-fluoro-8-(trifluoromethyl)-5,6-dihydro-4H-[1,4]oxazepino[5,6,7-de]quinazolin-9-yl)-7-fluorobenzo[b]thiophene-3-carbonitrile], the pIC50 at KRAS G12S, on KRAS G12D, on KRAS WT and on KRAS G12V was at least 5.70 in each case.
`CN(C)CCC[C@H](c1cccnc1N)N1CCOc2c(C(F)(F)F)c(-c3ccc(F)c4sc(N)c(C#N)c34)c(F)c3nc(OC[C@@]45CCCN4C[C@H](F)C5)nc1c23` (single isomer, unassigned) [Compound 705]: the pIC50 at KRAS G12S, at KRAS G12D, on KRAS WT and at KRAS G12V was at least 5.70 in each case.
For `N#Cc1c(N)sc2c(F)ccc(-c3c(Cl)c4c5c(nc(OC[C@@]67CCCN6C[C@H](F)C7)nc5c3F)N([C@H](C#CC3CC3)c3cccnc3N)CCO4)c12` [Compound 609, 2-amino-4-(4-((R)-1-(2-aminopyridin-3-yl)-3-cyclopropylprop-2-yn-1-yl)-8-chloro-10-fluoro-2-(((2R,7aS)-2-fluorotetrahydro-1H-pyrrolizin-7a(5H)-yl)methoxy)-5,6-dihydro-4H-[1,4]oxazepino[5,6,7-de]quinazolin-9-yl)-7-fluorobenzo[b]thiophene-3-carbonitrile], the pIC50 on KRAS G12S, at KRAS G12D, at KRAS WT and at KRAS G12V was at least 5.70 throughout.
For `C[C@@H]1COCCN1CC1(COc2nc3c4c(c(C(F)(F)F)c(-c5ccc(F)c6sc(N)c(C#N)c56)c(F)c4n2)OCCN3[C@H](C)c2cccnc2N)CC1` (single isomer, unassigned) [Compound 608], the negative logarithm of the IC50 (pIC50) at KRAS G12S, at KRAS G12D, on KRAS WT and on KRAS G12V was at least 5.70 in each case.
Take `C[C@H](c1cccnc1N)N1CCOc2c(Cl)c(-c3ccc(F)c4sc(N)c(C#N)c34)c(F)c3nc(OCC45CCCC4CCC5)nc1c23` (single isomer, unassigned) [Compound 674]: the pIC50 at KRAS G12S, on KRAS G12D, on KRAS WT and at KRAS G12V was below 5.70 throughout.
